Holding throughout (type): toxicity, cell-based
Data set [1] deals with U2OS. Put plainly: Incucyte cell viability with U2OS. The following applies: human, 10 µM, compound concentration 10 uM.
Data set [2] deals with Fibroblast. The data set is described as follows: Incucyte cell viability with human fibroblast. The conditions noted are these: 10 µM, compound concentration 10 uM.
For data set [3], the system named is HEK-293T. The data set is described as follows: Incucyte cell viability with HEK293T. The conditions noted are these: human, 10 µM, compound concentration 10 uM.
Note: unitless GR value; below 1 slowed growth and below 0 cell loss.

Take `CN(C1CCc2c(c3ccccc3n2CC(=O)O)C1)S(=O)(=O)c1ccc(F)cc1` (centres undefined): the “Growth Rate” value in data set [1] (0 h, replicate number 1) is on record as 0.71; in data set [1] (0 h, replicate number 2), 0.7; in data set [1] (6 h, replicate number 1), 0.61; in data set [1] (12 h, replicate number 2) it was 0.9; in data set [1] (18 h, replicate number 2) it was 0.93; in data set [1] (24 h, replicate number 1) it was 0.87. In addition, the “Growth Rate” value in data set [1] (24 h, replicate number 2) was 0.92; in data set [2] (0 h, replicate number 1), -0.98; in data set [2] (0 h, replicate number 2), 0.14; in data set [2] (6 h, replicate number 1), 0.47; in data set [2] (6 h, replicate number 2), 0.23; in data set [2] (18 h, replicate number 1), 0.85. Besides, the “Growth Rate” value in data set [2] (18 h, replicate number 2) is on record as 0.96; in data set [2] (24 h, replicate number 1), 0.96; in data set [3] (0 h, replicate number 1), 0.38.

As to `CC(C)(O)c1coc(S(=O)(=O)NC(=O)Nc2c3c(cc4c2CCC4)CCC3)c1`, the “Growth Rate” value was found to be 0.85 in data set [1] (0 h, replicate number 1); 0.92 in data set [1] (6 h, replicate number 1); 0.88 in data set [1] (12 h, replicate number 1); 0.89 in data set [1] (12 h, replicate number 2); 0.99 in data set [1] (18 h, replicate number 2); 0.94 in data set [1] (24 h, replicate number 2). The “Growth Rate” value was 0.57 in data set [2] (0 h, replicate number 2); 0.99 in data set [2] (24 h, replicate number 1); -0.08 in data set [3] (0 h, replicate number 1); 0.34 in data set [3] (0 h, replicate number 2).

For the compound `NCc1ccc(OCCCc2sc(-c3ccc4c(c3)/C(=N/Nc3nc5ccccc5s3)CCC4)nc2C(=O)O)cc1`, the “Growth Rate” value in data set [1] (0 h, replicate number 1) was 0.77; in data set [1] (6 h, replicate number 1), 0.23; in data set [1] (12 h, replicate number 1), 0.44; in data set [1] (12 h, replicate number 2) it was 0.7; in data set [1] (18 h, replicate number 1) it was 0.63; in data set [1] (18 h, replicate number 2), 0.72. The “Growth Rate” value is reported as 0.58 in data set [1] (24 h, replicate number 1); 0.74 in data set [1] (24 h, replicate number 2); -0.83 in data set [2] (0 h, replicate number 2); 0.94 in data set [2] (6 h, replicate number 1); 0.54 in data set [3] (0 h, replicate number 1); -0.79 in data set [3] (0 h, replicate number 2).

`Cc1nn(C)c(COc2ccc(N3CCN(S(=O)(=O)N(C)C)CC3)cc2)c1-c1cccc2c(CCCOc3cccc4ccccc34)c(C(=O)O)n(CCN3CCOCC3)c12`: the “Growth Rate” value in data set [1] (0 h, replicate number 1) was determined as 0.4; in data set [1] (6 h, replicate number 1) it was 0.3; in data set [1] (6 h, replicate number 2) it was 0.93; in data set [1] (12 h, replicate number 1), 0.85; in data set [1] (12 h, replicate number 2) it was 0.97; in data set [1] (18 h, replicate number 1), 0.86. In addition, the “Growth Rate” value stood at 0.92 in data set [1] (18 h, replicate number 2); 0.86 in data set [1] (24 h, replicate number 1); 0.98 in data set [1] (24 h, replicate number 2); 0.53 in data set [2] (6 h, replicate number 1); 0.58 in data set [2] (18 h, replicate number 1); 0.76 in data set [2] (24 h, replicate number 1). Further, the “Growth Rate” value is 0.38 in data set [3] (0 h, replicate number 1); 0.99 in data set [3] (6 h, replicate number 1); 0.84 in data set [3] (6 h, replicate number 2); 0.93 in data set [3] (12 h, replicate number 1); 0.93 in data set [3] (18 h, replicate number 1).

On to `Cc1csc(S(=O)(=O)N(CC(C)C)c2cc3c(cc2OCc2ccc(C(=O)O)cc2)CCC3)n1`, for which the “Growth Rate” value is 0.87 in data set [1] (6 h, replicate number 2); 0.88 in data set [1] (12 h, replicate number 2); 0.99 in data set [1] (18 h, replicate number 1); 0.83 in data set [1] (18 h, replicate number 2); 0.99 in data set [1] (24 h, replicate number 1); 0.86 in data set [1] (24 h, replicate number 2). Also, the “Growth Rate” value in data set [2] (0 h, replicate number 2) was -0.95; in data set [2] (6 h, replicate number 1) it was 0.68; in data set [2] (6 h, replicate number 2), 0.06; in data set [2] (12 h, replicate number 2), 0.69; in data set [3] (0 h, replicate number 1), -0.23; in data set [3] (0 h, replicate number 2) it was -0.11.

As for `Cc1cc(OCc2nc3ccccc3s2)ccc1NC(=O)Nc1ccc(Cl)c(Cl)c1`, the “Growth Rate” value was 0.98 in data set [1] (18 h, replicate number 2); -1 in data set [2] (0 h, replicate number 1); -0.81 in data set [2] (0 h, replicate number 2); 0.94 in data set [2] (12 h, replicate number 2); 0.94 in data set [2] (18 h, replicate number 2); 0.92 in data set [2] (24 h, replicate number 2). For the same compound, the “Growth Rate” value in data set [3] (0 h, replicate number 1) is 0.1; in data set [3] (0 h, replicate number 2) it was -0.01; in data set [3] (12 h, replicate number 2) it was 0.92.

`Cc1nn(-c2nc3ccc(Cl)c(Cl)c3[nH]2)c(O)c1C1OC(=O)c2ccccc21` (centres undefined): the “Growth Rate” value in data set [1] (0 h, replicate number 1) was 0.81; in data set [1] (6 h, replicate number 1), 0.82; in data set [2] (0 h, replicate number 1), -1; in data set [2] (0 h, replicate number 2) it was -0.86; in data set [2] (6 h, replicate number 1), 0.95; in data set [2] (24 h, replicate number 1) it was 0.83. Further, in data set [3] (0 h, replicate number 1), the “Growth Rate” value amounted to 0.09.

For the compound `CCCCCCC(Sc1nc(Cl)cc(NCc2ccc(-c3ccccc3)cc2)n1)C(=O)O` (centres undefined), the “Growth Rate” value in data set [1] (0 h, replicate number 1) is 0.82; in data set [1] (12 h, replicate number 1), 0.89; in data set [1] (12 h, replicate number 2) it was 0.97; in data set [1] (24 h, replicate number 1), 0.94; in data set [1] (24 h, replicate number 2) it was 0.96; in data set [2] (0 h, replicate number 2), -0.63. Further, the “Growth Rate” value in data set [2] (24 h, replicate number 1) amounted to 0.91; in data set [3] (0 h, replicate number 1), 0.04.

As to `N[C@@H](CC(=O)O)Cn1nnc(-c2ccc(Oc3ncc(Cl)cc3F)cc2)n1`, the “Growth Rate” value was determined as 0.62 in data set [1] (6 h, replicate number 1); 0.4 in data set [2] (12 h, replicate number 2); 0.74 in data set [2] (18 h, replicate number 2); 0.95 in data set [2] (24 h, replicate number 1); 0.76 in data set [2] (24 h, replicate number 2); 0.53 in data set [3] (0 h, replicate number 1). For the same compound, the “Growth Rate” value was 0.85 in data set [3] (6 h, replicate number 1); 0.12 in data set [3] (6 h, replicate number 2); 0.94 in data set [3] (12 h, replicate number 1); 0.58 in data set [3] (12 h, replicate number 2); 0.72 in data set [3] (18 h, replicate number 2); 0.95 in data set [3] (24 h, replicate number 1). Also, the “Growth Rate” value in data set [3] (24 h, replicate number 2) is on record as 0.83.

Turning to `Cc1sc(C(=O)c2cncnc2N[C@@H]2C[C@H](COS(N)(=O)=O)[C@@H](O)C2)cc1[C@@H]1NCCc2ccc(Cl)cc21`, the “Growth Rate” value in data set [1] (0 h, replicate number 2) is reported as 0.29; in data set [1] (6 h, replicate number 1), 0.59; in data set [1] (6 h, replicate number 2), -0.29; in data set [1] (12 h, replicate number 1), 1; in data set [1] (12 h, replicate number 2) it was -0.03; in data set [1] (18 h, replicate number 1), 0.96. In addition, the “Growth Rate” value in data set [1] (18 h, replicate number 2) is recorded as 0.17; in data set [1] (24 h, replicate number 1), 0.66; in data set [1] (24 h, replicate number 2), 0.3; in data set [2] (0 h, replicate number 2), -0.16; in data set [2] (6 h, replicate number 1), 0.42; in data set [2] (12 h, replicate number 1), 0.55. The “Growth Rate” value in data set [2] (12 h, replicate number 2) is 0.8; in data set [2] (18 h, replicate number 1) it was 0.44; in data set [2] (24 h, replicate number 1), 0.47; in data set [3] (0 h, replicate number 1), -0.45; in data set [3] (0 h, replicate number 2), -0.97; in data set [3] (18 h, replicate number 1), 0.9. Further, the “Growth Rate” value in data set [3] (24 h, replicate number 1) is recorded as 0.74; in data set [3] (24 h, replicate number 2) it was 0.88.

On to `COc1ccc(Br)cc1S(=O)(=O)NC(=O)/C=C/c1cc(Cl)ccc1Cc1ccc2ccccc2c1`, for which the “Growth Rate” value in data set [1] (18 h, replicate number 2) is reported as 0.86; in data set [2] (0 h, replicate number 2) it was -0.66; in data set [2] (6 h, replicate number 1), 0.77; in data set [2] (6 h, replicate number 2) it was -0.77; in data set [2] (12 h, replicate number 1), 0.99; in data set [2] (12 h, replicate number 2), 0.22. Also, the “Growth Rate” value in data set [2] (18 h, replicate number 1) is listed as 0.99; in data set [2] (18 h, replicate number 2) it was 0.56; in data set [2] (24 h, replicate number 1) it was 0.91; in data set [2] (24 h, replicate number 2), 0.39; in data set [3] (0 h, replicate number 1) it was 0.03; in data set [3] (0 h, replicate number 2), 0.17. Besides, the “Growth Rate” value in data set [3] (18 h, replicate number 2) was 0.99; in data set [3] (24 h, replicate number 2), 0.94.

Consider `CCCCC[C@@](C)(O)/C=C/[C@H]1C(=O)CC(O)C1C/C=C\CCCC(=O)O` (some centres undefined), for which the “Growth Rate” value in data set [1] (6 h, replicate number 1) is 0.49; in data set [1] (24 h, replicate number 1), 0.94; in data set [1] (24 h, replicate number 2), 1; in data set [2] (6 h, replicate number 2), -0.92; in data set [2] (12 h, replicate number 1) it was 0.71; in data set [2] (12 h, replicate number 2), 0.2. Also, the “Growth Rate” value is listed as 0.57 in data set [2] (18 h, replicate number 2); 0.71 in data set [2] (24 h, replicate number 2); -0.27 in data set [3] (0 h, replicate number 1); 0.17 in data set [3] (0 h, replicate number 2); 0.96 in data set [3] (12 h, replicate number 2).

For the compound `O=C(O)CCCCCC[C@@H]1C(=O)NC(=O)N1CCC(O)C1CCCCC1` (some centres undefined), the “Growth Rate” value is 0.14 in data set [1] (0 h, replicate number 1); 0.54 in data set [1] (6 h, replicate number 1); 0.99 in data set [1] (6 h, replicate number 2); 0.93 in data set [1] (12 h, replicate number 2); 0.87 in data set [1] (18 h, replicate number 2); 0.92 in data set [1] (24 h, replicate number 2). Moreover, the “Growth Rate” value in data set [2] (0 h, replicate number 1) is -0.99; in data set [2] (0 h, replicate number 2), 0.52; in data set [2] (6 h, replicate number 1), -0.07; in data set [2] (12 h, replicate number 1) it was 0.61; in data set [2] (18 h, replicate number 1) it was 0.69; in data set [2] (24 h, replicate number 1), 0.75. In addition, the “Growth Rate” value is -0.07 in data set [3] (0 h, replicate number 1) and 0.52 in data set [3] (0 h, replicate number 2).

In the case of `CCCCc1c(-c2ccccc2)nc(N)nc1-c1ccc(OCc2ccccc2)c(F)c1F`, the “Growth Rate” value in data set [1] (0 h, replicate number 2) is listed as -0.86; in data set [1] (6 h, replicate number 1) it was 0.5; in data set [1] (6 h, replicate number 2), 0.27; in data set [1] (12 h, replicate number 2) it was 0.36; in data set [1] (18 h, replicate number 2), 0.55; in data set [1] (24 h, replicate number 1) it was 1. Further, the “Growth Rate” value in data set [1] (24 h, replicate number 2) is given as 0.77; in data set [2] (0 h, replicate number 2), 0.8; in data set [3] (0 h, replicate number 1), -0.23; in data set [3] (0 h, replicate number 2) it was -0.46; in data set [3] (12 h, replicate number 2), 0.89; in data set [3] (24 h, replicate number 2), 0.99.

The record behind these values is ChEMBL document CHEMBL5303304, “EUbOPEN Chemogenomics Library - IncuCyte” (2023).
